PMC6976638, “Screening of natural compounds that targets glutamate racemase of Mycobacterium tuberculosis reveals the anti-tubercular potential of flavonoids” (Scientific Reports, 2020)

Experiments:
[1] = biological target: Glutamate racemase (MTB-MurI) (Mycobacterium tuberculosis, UniProt P9WPW9); assay: GDH-coupled racemization assay (A340), Lineweaver-Burk and Dixon plots; […]; format: biochemical
[2] = test system: N[C@H](CCC(=O)O)C(=O)O; assay: purified protein; conditions: substrate binding site; Cys75 and Cys185 catalytic residues

Sequence of Glutamate racemase (MTB-MurI) (P9WPW9 whole entry, looked up): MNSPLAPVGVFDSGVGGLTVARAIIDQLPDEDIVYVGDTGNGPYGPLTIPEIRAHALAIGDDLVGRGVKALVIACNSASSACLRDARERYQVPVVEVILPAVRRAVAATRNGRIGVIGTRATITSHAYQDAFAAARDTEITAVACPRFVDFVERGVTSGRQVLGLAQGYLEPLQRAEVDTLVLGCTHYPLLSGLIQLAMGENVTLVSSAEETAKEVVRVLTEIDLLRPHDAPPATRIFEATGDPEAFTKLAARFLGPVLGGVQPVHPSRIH

| Compound | Ki [1] [µM] | Km [2] [µM] |
| --- | --- | --- |
| O=C1C[C@@H](c2ccc(O)cc2)Oc2cc(O)cc(O)c21 [naringenin] | 23.8 | – |
| O=c1c(O)c(-c2ccc(O)c(O)c2)oc2cc(O)cc(O)c12 [quercetin] | 20.8 | – |
| Glutamate racemase (MTB-MurI) (Mycobacterium tuberculosis H37Rv) | – | 499 |
